Laboratory results reported in PMC7394005, “Assessing the Selectivity of FXR, LXRs, CAR, and RORγ Pharmaceutical Ligands With Reporter Cell Lines” (Frontiers in Pharmacology, 2020).

Tests used:
HG5LN parental cell line = assay: Non-specific modulation of luciferase expression in HG5LN parental cell line; assay type: cell-based, human; settings: HG5LN parental cells lacking Gal4-NRs; Figure S2
Description: (§1) HG5LN and HG5LN PXR cells have already been described ([Delfosse et al., 2015]). To characterize the specificity of chemicals for human FXR, LXRα, LXRβ, CAR and RORγ, we established in a similar manner HG5LN FXR, LXRα, LXRβ, CAR WT, CAR (APYLT) and RORγ reporter cell lines. HG5LN are HeLa cells stably transfected by the (GAL4RE)5-βGlob-Luc-SVNeo plasmid ([Seimandi et al., 2005]). These cells were stably transfected by pSG5-GAL4 (DBD)-NRs (LBD)-puromycin plasmid and selected in presence of 0.5 µg/ml puromycin. […] From each HG5LN NR cells, 5 to 10 clones were chosen for their ligand inducibility of luciferase expression. We noted that the basal activity in absence of ligand strongly differed among NRs. FXR, LXRs, and CAR APYLT had the lowest basal activities, whereas CAR and RORγ had the highest. The most inducible clones were expanded and rechecked for inducibility and aliquots were frozen at different passages. One clone per receptor was maintained in culture and used for ligand screening. HG5LN cells were cultured in Dulbecco’s modified Eagle’s medium (DMEM): Nutrient Mixture F-12 (DMEM/F-12) containing phenol red and 1 g/l glucose and supplemented with 5% fetal bovine serum, 100 units/ml of penicillin, 100 µg/ml of streptomycin and 1 mg/ml geneticin, in 5% CO2 humidified atmosphere at 37°C. Stably transfected cell lines derived from HG5LN cells were cultured in the same culture medium supplemented with 0.5 µg/ml puromycin.
(§2) Individual reporter cell lines were seeded at a density of 40,000 cells per well in 96-well white opaque tissue culture plates (Greiner CellStar) in Dulbecco’s Modified Eagle Medium: Nutrient Mixture F-12 (DMEM/F-12) without phenol red and 1 g/l glucose and supplemented with 5% stripped fetal bovine serum, 100 units/ml of penicillin, 100 µg/ml of streptomycin (test medium). Chemicals to be tested were added 24h later, and cells were incubated at 37°C for 16h. Experiments were performed in quadruplicates. At the end of the incubation period, culture medium was replaced with test medium containing 0.3 mM luciferin solution. Luciferase activity was measured for 2s in intact living cells after 10 min stabilization using a Micro Beta Wallac luminometer (PerkinElmer). EC50 values were calculated using GraphPad Prism (GraphPad Software Inc).
To evaluate the FXR, LXRα, LXRβ, PXR, CAR, and RORγ specificity of pharmaceutical chemicals, we established HG5LN reporter cell lines expressing human FXR, LXRα, LXRβ, CAR, CAR (+ APYLT), and RORγ. Then, we tested the agonistic/antagonistic potential of 22 commercially available pharmaceutical compounds ( Figure S1 ) on these cells and in the previously established PXR cell line ([Delfosse et al., 2015]). The 22 chemicals were first tested for non-specific modulation of luciferase expression on the HG5LN parental cell line, which contains the same reporter gene as HG5LN-GAL4-NRs cells, but lacks of Gal4-NRs. […] The basal (in absence of ligand) and the maximal (in presence of NR-specific full agonist) activities of HG5LN and the different HG5LN GAL4-NRs were measured. […] The expression of FXR induced the slight repression of basal transcription, while both LXRs and PXR had no effect, or just slightly activated the basal transcription ( Figure 1 ). Consequently, the baseline activities were normalized as percentage of maximal activity mediated by full agonists, as follows: 6% for FXR, 8% for LXRα, 9% for LXRβ, 19% for PXR ( Table 1 ). On the contrary, the basal activity was increased by the expression of CAR and RORγ. Due to the inherent constitutive activity, we determined this activity equal to 100% as the specific agonists were not able to reveal their transactivation potential alone, but they were able to reverse the inhibition caused by antagonists/reverse agonists. To characterize easily CAR agonists, we used cell line expressing a variant of CAR (CAR + APYLT) with reduced basal ([Auerbach et al., 2003]). […]

human PXR = biological target: T1, human PXR (Homo sapiens, UniProt O75469); assay: HG5LN PXR reporter cell line, antagonist mode in presence of SR12813; assay type: cell-based; settings: read-out: PXR (SR12813 300 nM) IC50; in presence of SR12813 300 nM; NE = No effect
T1 construct: The GAL4-NR chimeric cell lines provide uniform cellular model differing just in receptor LBDs; expressed in transfected cells; host or cells: HG5LN PXR (HeLa-derived; described in Delfosse et al., 2015)
T1 sequence (O75469 146-433 limits assumed): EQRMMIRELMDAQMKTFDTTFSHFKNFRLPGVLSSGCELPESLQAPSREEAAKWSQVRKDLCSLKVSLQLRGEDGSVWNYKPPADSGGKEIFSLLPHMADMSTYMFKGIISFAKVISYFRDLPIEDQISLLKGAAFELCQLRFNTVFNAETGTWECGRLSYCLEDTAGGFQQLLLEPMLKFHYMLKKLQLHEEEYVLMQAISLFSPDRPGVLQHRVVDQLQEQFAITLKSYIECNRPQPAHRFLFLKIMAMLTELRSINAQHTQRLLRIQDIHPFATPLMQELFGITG
Description: as §1, with “To” for “HG5LN and HG5LN PXR cells have already been described ([Delfosse et al., 2015]). To”, “HG5LN are HeLa cells stably transfected by the (GAL4RE)5-βGlob-Luc-SVNeo plasmid ([Seimandi et al., 2005]).” left out, “We noted that the basal activity in absence of ligand strongly differed among NRs. FXR, LXRs, and CAR APYLT had the lowest basal activities, whereas CAR and RORγ had the highest.” left out
as §2
Chemicals tested for agonism on FXR, LXRs, CAR (+ APYLT), PXR, and antagonism on CAR and RORγ were tested alone, without addition of any other ligand.
In the transactivation assay, each compound was tested at various concentrations in three independent experiments at least. For each experiment, tests were performed in quadruplicates for each concentration, and data are expressed by means values with standard deviations. Individual agonist dose–response curves, in the absence and presence of antagonist, were fitted using the sigmoid dose-response function of a graphics and statistics software program (GraphPad Prism, version 5.0). EC50 (effective concentration for half-maximal luciferase activity) and IC50 (half-maximal inhibitory concentration) values were calculated from equations used to fit the data in this graphic software. Transactivation data are presented as EC50 and IC50 values for each compound tested. To analyze significances, we compared individual compound treatments with controls using one-way analysis of variance (ANOVA) with the help of GraphPad Prism software.

Row | IC50 (human PXR) [µM] | Molecule | Nonspecific activation of luciferase expression in HG5LN parental cell line (HG5LN parental cell line) | Toxicity (non-specific decrease of luciferase expression) in HG5LN parental cell line (HG5LN parental cell line)
1 | – | Clc1ccc(-c2nc3sccn3c2/C=N/OCc2ccc(Cl)c(Cl)c2)cc1 [CITCO] | significant nonspecific activation | –
2 | – | Clc1ccccc1C(c1ccccc1)(c1ccccc1)n1ccnc1 [Clotrimazole, clotrimazole] | – | most toxic
3 | > 10 | COc1cccc(Cn2cc(C(=O)Nc3ccc(C)c(S(=O)(=O)N4CCOCC4)c3)c(-c3ccc(C)cc3)n2)c1 [DY268] | significant nonspecific activation | –
4 | > 10 | COC(=O)/C=C/c1cccc(N(Cc2ccc(-c3ccc(N(C)C)cc3)cc2)C(=O)C2CCCCC2)c1 [Feraxamine] | – | –
5 | – | Cc1cc(C)c(S(=O)(=O)N(Cc2ccc(-c3cccc(S(C)(=O)=O)c3)cc2)Cc2ccc(C(F)(F)F)o2)c(C)c1 [GSK2033] | significant nonspecific activation | –
6 | > 10 | CC(C)c1onc(-c2c(Cl)cccc2Cl)c1COc1ccc(/C=C/c2cccc(C(=O)O)c2)c(Cl)c1 [GW4064] | significant nonspecific activation | –
7 | > 10 | Cc1oc2ccccc2c1CNC(=O)NCc1cccs1 [S07662] | – | –
8 | > 10 | CC(=O)Nc1nc(C)c(S(=O)(=O)Nc2ccc(C(O)(C(F)(F)F)C(F)(F)F)cc2)s1 [SR1001] | – | –
9 | – | Fc1ccc(-c2c3cccc(C(F)(F)F)c3nn2Cc2ccc(F)cc2Cl)cc1 [WAY252623] | significant nonspecific activation | –
10 | – | SPA70 | – | most toxic

Row | Molecule | IC50 (human PXR) [µM] | Nonspecific activation of luciferase expression in HG5LN parental cell line (HG5LN parental cell line) | Toxicity (non-specific decrease of luciferase expression) in HG5LN parental cell line (HG5LN parental cell line)
11 | O=C(Nc1ccc(C(O)(C(F)(F)F)C(F)(F)F)cc1)c1ccc(C(F)(F)F)cc1 [SR1078] | > 10 | – | –
